Assay results published in ChEMBL document CHEMBL2029321, “Identification of chalcones as potent and selective PDE5A1 inhibitors” (Bioorg Med Chem Lett, 2012).

Legend:
[1] = molecular target: cGMP-specific 3',5'-cyclic phosphodiesterase (Homo sapiens) (UniProt O76074); test: Inhibition of PDE5A1 at 10 ug/mL
[2] = molecular target: Phosphodiesterase 4 (Homo sapiens, UniProt P27815+Q08499+Q07343+Q08493); test: Inhibition of human neutrophil PDE4; assay type: protein assay
[3] = molecular target: cGMP-specific 3',5'-cyclic phosphodiesterase (Bos taurus, UniProt Q28156); test: Inhibition of bovine platelet PDE5
[4] = Inhibition of rabbit corpus cavernosum PDE6; set-up: species or system Oryctolagus cuniculus

Row | SMILES | inhibition [1] [%] | IC50 [2] [µM] | IC50 [3] [µM] | IC50 [4] [µM]
1 | COc1ccc(C(=O)/C=C/c2ccccc2OC)c(OC)c1 | 43.1 | – | – | –
2 | COc1ccc(OC)c(/C=C/C(=O)c2c3c(c(OC)c4c2OCO4)CN(C)CC3)c1 | 45.5 | – | – | –
3 | COC(=O)C[N+]1(C)CCc2c(c(OC)c3c(c2C(=O)/C=C/c2ccc(OC)cc2OC)OCO3)C1 (configuration not stated) | 18.3 | – | – | –
4 | COc1ccccc1/C=C/C(=O)c1cc(OC)c(OC)cc1CCNC(C)=O | 19.9 | – | – | –
5 | COc1ccc(OC)c(C(=O)/C=C/c2cc(OC)c(C)cc2OC)c1 | 24.9 | – | – | –
6 | COc1ccc(/C=C/C(=O)c2c(OCc3ccccc3)cc(OC)c(OC)c2OC)cc1OC | 77.7 | 2.3 | 5.9 | > 10
7 | COc1ccc(OC)c(/C=C/C(=O)c2ccc(SC)cc2)c1 | 26.6 | – | – | –
8 | COc1ccc(OC)c(/C=C/C(=O)c2ccc(Cl)cc2)c1 | 8.1 | – | – | –
9 | COc1ccc(OC)c(/C=C/C(=O)c2ccc(OC)c(OC)c2)c1 | 47.3 | – | – | –
10 | COc1ccc(/C=C/C(=O)c2cc(Cl)ccc2OC)cc1OC | 3.5 | – | – | –
11 | COc1ccc(OC)c(/C=C/C(=O)c2ccc(OC)cc2OC)c1 | 58.7 | 4.9 | 6 | > 10
12 | COc1ccc(C(=O)/C=C/c2cccc(OC)c2OC)c(OC)c1 | 46.7 | – | – | –
13 | COc1ccc(OC)c(C(=O)/C=C/c2ccc(OC)c(OC)c2)c1 | 66.1 | 8.2 | 7 | > 10
14 | COc1ccc(/C=C/C(=O)c2c3c(c(OC)c4c2OCO4)CN(C)CC3)c(OC)c1OC | 37.1 | – | – | –
15 | COc1ccc(C(=O)/C=C/c2cc(Cl)ccc2Cl)c(OC)c1 | 39.5 | – | – | –
16 | COc1ccc(/C=C/C(=O)c2c3c(c(OC)c4c2OCO4)CN(C)CC3)cc1 | 31.8 | – | – | –

Row | SMILES | inhibition [1] [%] | IC50 [2] [µM] | IC50 [3] [µM] | IC50 [4] [µM]
17 | COc1ccc(/C=C/C(=O)c2cc(OC)c(OC)cc2CCNC(C)=O)c(OC)c1 | 45.5 | – | – | –
18 | COc1c2c(c(C(=O)/C=C/c3ccc(Cl)cc3Cl)c3c1OCO3)CCN(C)C2 | 8.17 | – | – | –
19 | COc1ccc(/C=C/C(=O)c2c(O)cc(OC)c(OC)c2OC)c(OC)c1 | 35.7 | – | – | –
20 | COc1cccc(/C=C/C(=O)c2c3c(c(OC)c4c2OCO4)CN(C)CC3)c1OC | 43.9 | – | – | –
21 | COc1ccc(C2CNC(=O)C2)cc1OC1CCCC1 (configuration not stated) [ROLIPRAM] | – | – | – | > 10
22 | CCCOc1ccccc1-c1nc2[nH]nnc2c(=O)[nH]1 [ZAPRINAST] | – | – | – | 0.4
23 | COc1ccc(/C=C/C(=O)c2cc(OC)ccc2OC)cc1 | 25.6 | – | – | –
24 | COc1cc(CCNC(C)=O)c(C(=O)/C=C/c2cccc(OC)c2OC)cc1OC | 27.7 | – | – | –
25 | COc1ccc(/C=C/C(=O)c2c3c(c(OC)c4c2OCO4)CN(C)CC3)c(OC)c1 | 35.1 | – | – | –
26 | COc1ccc(OC)c(/C=C/C(=O)c2cc(OC)c(OC)cc2CCNC(C)=O)c1 | 47.4 | – | – | –
27 | COc1ccc(C(=O)/C=C/c2cc(OC)c(OC)cc2OC)c(OC)c1 | 65.9 | > 10 | 1.8 | > 10
28 | COc1cccc(/C=C/C(=O)c2c3c(c(OC)c4c2OCO4)CN(C)CC3)c1 | 64.8 | > 10 | 6.2 | > 10
29 | COC(=O)C[N+]1(C)CCc2c(cc3c(c2C(=O)/C=C/c2cc(OC)ccc2OC)OCO3)C1 (configuration not stated) | 7.2 | – | – | –
30 | COc1ccc(C(=O)/C=C/c2ccc(OC)c(OC)c2)c(O)c1 | 23.8 | – | – | –
31 | COc1ccc(OC)c(/C=C/C(=O)c2cc(OC)c(C)cc2OC)c1 | 20.2 | – | – | –
32 | CCCc1nn(C)c2c(=O)[nH]c(-c3cc(S(=O)(=O)N4CCN(C)CC4)ccc3OCC)nc12 | – | – | – | 0.1
